Among the test systems are Vibrio alginolyticus; Vibrio vulnificus 204; Streptococcus agalactiae; Vibrio cholerae non-O1; Vibrio cholerae non-O139.
Assay in all cases: ≥ marks a high value that may be exact or a test limit, other limits are often not marked, values filed in µg/mL are converted to µM
Assay [1] concerns Streptococcus pneumoniae BCRC 10794.
Assay [2] deals with Staphylococcus sp. BCRC 10451.
Assay [3] relates to Vibrio harveyi BCRC 13812.
Assay [4] relates to Staphylococcus aureus BCRC 10780.
For assay [5], the system named is Micrococcus luteus BCRC 11034.
Assay [6] has as its system Enterococcus faecalis ATCC 29212.
Assay [7] concerns Staphylococcus aureus ATCC 25325.
In assay [8] the test system is Escherichia coli ATCC 35218.
Assay [9] deals with Pseudomonas aeruginosa ATCC 27853.
For assay [10], the system named is Listeria monocytogenes ATCC 35152.
Assay [11] has as its system Klebsiella pneumoniae ATCC 13883.
Assay [12] deals with Staphylococcus aureus ATCC 25923.
Assay [13] has as its system Escherichia coli ATCC 25922.
Assay [14] relates to Staphylococcus epidermidis ATCC 12228.
The subject of assay [15] is Salmonella enterica subsp. enterica serovar Typhi DMST 22842.

In brackets after ≈: the same amount, converted by molar mass.

For orientation: MIC means the lowest concentration that inhibits growth of the organism. High values mean a less susceptible organism, low ones a more susceptible organism. Consider `CC[C@H](C)[C@H](NC(=O)[C@H](Cc1ccccc1)NC(=O)CNC(C)=O)C(=O)N[C@@H](Cc1ccccc1)C(=O)N[C@@H](Cc1cnc[nH]1)C(=O)N[C@H](C(=O)N[C@H](C(=O)N[C@@H](CCCCN)C(=O)NCC(=O)N[C@@H](CC(C)C)C(=O)N[C@@H](Cc1ccccc1)C(=O)N[C@@H](Cc1cnc[nH]1)C(=O)N[C@@H](C)C(=O)NCC(=O)N[C@@H](CCCCN)C(N)=O)[C@@H](C)CC)[C@@H](C)CC` [GFIFHIIKGLFHAGK], for which the MIC in [1] is 29.7 µM (≈ 51.2 µg/mL); in assay [2], 3.71 µM (≈ 6.4 µg/mL); in assay [3], 7.42 µM (≈ 12.8 µg/mL); in assay [4] it was 14.8 µM (≈ 25.6 µg/mL); in the assay with Vibrio alginolyticus, 14.8 µM (≈ 25.6 µg/mL); against Vibrio vulnificus 204, no less than 59.3 µM. Further, the minimum inhibitory concentration (MIC) is 29.7 µM (≈ 51.2 µg/mL) against Streptococcus agalactiae and 14.8 µM (≈ 25.6 µg/mL) in assay [5].

Turning to `CC(C)[C@H](NC(=O)[C@H](Cc1cnc[nH]1)NC(=O)[C@H](C)NC(=O)[C@H](C)NC(=O)[C@H](CCCCN)NC(=O)[C@@H](N)CCCCN)C(=O)NCC(=O)N[C@@H](CCCCN)C(=O)N[C@@H](Cc1cnc[nH]1)C(=O)N[C@H](C(=O)NCC(=O)N[C@@H](CCCCN)C(=O)N[C@@H](C)C(=O)N[C@@H](C)C(=O)N[C@@H](CCCCN)C(=O)N[C@@H](CCCCN)C(=O)O)C(C)C` [KKAAHVGKHVGKAAKK], the minimum inhibitory concentration (MIC) is 47.2 µM (≈ 78.3 µg/mL) in [6], no less than 56.3 µM in assay [7], no less than 56.1 µM in [8] and 52 µM (≈ 86.2 µg/mL) in [9].

In the case of `CC(C)C[C@H](NC(=O)[C@H](CCCCN)NC(=O)[C@@H](N)CCCCN)C(=O)NCC(=O)N[C@@H](CCC(=O)O)C(=O)N1CCC[C@H]1C(=O)N[C@@H](CO)C(=O)N[C@@H](CS)C(=O)N[C@@H](CC(N)=O)C(=O)N[C@@H](CCCCN)C(=O)N[C@@H](CC(C)C)C(=O)N[C@@H](CCCCN)C(N)=O` [KKLGEPSCNKLK], the minimum inhibitory concentration (MIC) in [10] stood at 22.3 µM (≈ 30 µg/mL); in assay [11] it was 29.7 µM (≈ 40 µg/mL); in assay [12], 18.6 µM (≈ 25 µg/mL); in assay [13] it was 22.3 µM (≈ 30 µg/mL); in assay [9] it was 37.2 µM (≈ 50 µg/mL).

In the case of `CC(C)[C@H](NC(=O)CNC(=O)[C@@H](N)CC(N)=O)C(=O)N[C@@H](CCC(N)=O)C(=O)N1CCC[C@H]1C(=O)N[C@@H](Cc1c[nH]c2ccccc12)C(=O)N[C@@H](Cc1ccc(O)cc1)C(=O)N[C@@H](CCCCN)C(=O)N[C@@H](Cc1c[nH]c2ccccc12)C(=O)N[C@@H](Cc1c[nH]c2ccccc12)C(=O)N[C@@H](CCCCN)C(=O)N[C@@H](Cc1c[nH]c2ccccc12)C(=O)N[C@@H](Cc1c[nH]c2ccccc12)C(=O)N[C@@H](CCCCN)C(=O)N[C@@H](CCCCN)C(=O)N[C@@H](Cc1c[nH]c2ccccc12)C(=O)N[C@@H](Cc1c[nH]c2ccccc12)C(N)=O` [NGVQPWYKWWKWWKKWW], the MIC against Vibrio cholerae non-O1 was no less than 36.5 µM; in [14] it was 36.5 µM (≈ 91 µg/mL); against Vibrio cholerae non-O139 it was no less than 36.5 µM; in [12], greater than 36.5 µM; in [13] it was greater than 36.5 µM; in assay [15] it was no less than 36.5 µM.

The values above are taken from DBAASP.
